Measured values reported in ChEMBL document CHEMBL1128541 (J Med Chem, 1995).

Tests used:
[1] = target: cGMP-specific 3',5'-cyclic phosphodiesterase (Homo sapiens, UniProt O76074); test: Inhibitory activity against phosphodiesterase 5 from human platelets
[2] = target: T1, cGMP-dependent 3',5'-cyclic phosphodiesterase (Rattus norvegicus, UniProt Q01062); test: Inhibition of rat brain Phosphodiesterase 2
T1 sequence (Q01062 whole entry): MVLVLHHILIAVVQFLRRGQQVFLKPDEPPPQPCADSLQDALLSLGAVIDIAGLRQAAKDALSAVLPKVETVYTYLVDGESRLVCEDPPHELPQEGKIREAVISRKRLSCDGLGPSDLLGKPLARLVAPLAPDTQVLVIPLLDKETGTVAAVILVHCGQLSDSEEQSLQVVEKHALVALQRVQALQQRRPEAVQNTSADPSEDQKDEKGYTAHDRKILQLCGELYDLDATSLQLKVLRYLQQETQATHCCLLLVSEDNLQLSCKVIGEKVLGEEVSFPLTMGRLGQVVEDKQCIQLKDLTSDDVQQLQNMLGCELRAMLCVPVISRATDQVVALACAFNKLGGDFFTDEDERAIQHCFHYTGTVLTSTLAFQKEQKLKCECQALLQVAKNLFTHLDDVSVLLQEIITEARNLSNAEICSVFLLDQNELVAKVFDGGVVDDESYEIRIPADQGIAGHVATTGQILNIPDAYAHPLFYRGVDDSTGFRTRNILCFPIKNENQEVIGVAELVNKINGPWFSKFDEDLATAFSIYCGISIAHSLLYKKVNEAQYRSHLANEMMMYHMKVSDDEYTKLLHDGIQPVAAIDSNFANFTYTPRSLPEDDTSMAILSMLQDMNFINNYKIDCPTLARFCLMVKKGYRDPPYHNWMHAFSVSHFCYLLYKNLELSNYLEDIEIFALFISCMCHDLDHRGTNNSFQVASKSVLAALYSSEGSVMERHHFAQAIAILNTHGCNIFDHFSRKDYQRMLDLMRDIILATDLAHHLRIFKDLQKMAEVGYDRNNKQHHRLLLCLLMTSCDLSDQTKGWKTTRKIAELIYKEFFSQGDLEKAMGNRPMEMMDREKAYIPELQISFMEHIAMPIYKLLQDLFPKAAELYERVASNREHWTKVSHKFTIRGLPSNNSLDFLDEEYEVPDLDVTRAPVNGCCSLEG

[3] = target: Phosphodiesterase 1 (Bos taurus, UniProt Q01061+P14100); test: Inhibition of bovine aorta Phosphodiesterase 1; type: protein assay
[4] = target: Phosphodiesterase 3 (Homo sapiens, UniProt Q14432+Q13370); test: Inhibition of human platelet Phosphodiesterase 3
[5] = target: Phosphodiesterase 4 (Rattus norvegicus, UniProt P14270+P14646+P14644+P54748); test: Inhibition of rat kidney Phosphodiesterase 4; type: protein assay
[6] = target: Cyclooxygenase (Homo sapiens, UniProt P35354+P23219); test: Inhibitory activity against Prostaglandin G/H synthase; type: protein assay
[7] = target: T2, Thromboxane-A synthase (Homo sapiens, UniProt P24557); test: In vitro inhibition of Thromboxane A2 synthase in human platelet
T2 sequence (P24557 whole entry): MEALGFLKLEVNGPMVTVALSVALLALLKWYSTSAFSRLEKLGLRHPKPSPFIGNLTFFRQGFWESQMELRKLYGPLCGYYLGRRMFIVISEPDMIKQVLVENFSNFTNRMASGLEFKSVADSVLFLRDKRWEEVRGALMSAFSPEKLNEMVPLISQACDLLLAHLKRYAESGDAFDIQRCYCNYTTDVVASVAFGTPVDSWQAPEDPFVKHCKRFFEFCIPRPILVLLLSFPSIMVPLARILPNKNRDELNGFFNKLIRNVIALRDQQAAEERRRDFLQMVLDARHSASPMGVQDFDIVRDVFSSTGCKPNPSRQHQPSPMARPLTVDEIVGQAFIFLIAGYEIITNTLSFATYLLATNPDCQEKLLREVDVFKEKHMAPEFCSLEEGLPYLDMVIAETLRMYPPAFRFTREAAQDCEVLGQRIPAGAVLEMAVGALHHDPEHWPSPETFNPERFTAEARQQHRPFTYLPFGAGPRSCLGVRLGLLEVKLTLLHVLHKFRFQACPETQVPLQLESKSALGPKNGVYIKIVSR

[8] = organism: Rattus norvegicus; test: In vitro inhibition of Thromboxane B2 production in A-23,187-Induced Rat Whole Blood; type: functional
[9] = organism: Rattus norvegicus; test: Ex vivo inhibition of Thromboxane B2 production in A-23,187-Induced Rat Whole Blood; type: functional
[10] = organism: Homo sapiens; test: In vitro inhibition of Thromboxane A2 synthesis in human platelet; type: functional

| IC50 [1] [nM] | Structure (SMILES) | further results |
| --- | --- | --- |
| 190 | COC(=O)c1cccc(Nc2nc(-c3ccccc3)nc3ccccc23)c1 |  |
| 720 | c1ccc(CNc2nc(-c3cccs3)nc3ccccc23)cc1 | IC50 [2]: 21000 nM; IC50 [3]: 13000 nM; IC50 [4]: > 100000 nM; IC50 [5]: 7600 nM |
| 1900 | c1ccc(CCNc2nc(-c3ccccc3)nc3ccccc23)cc1 |  |
| 210 | c1csc(CNc2nc(-n3ccnc3)nc3ccccc23)c1 |  |
| 4600 | Clc1nc(NCc2ccccc2)c2ccccc2n1 |  |
| 2500 | c1ccc(CNc2nc(-c3ccco3)nc3ccccc23)cc1 |  |
| 2300 | c1ccc(Nc2nc(-c3ccco3)nc3ccccc23)cc1 |  |
| 2400 | c1ccc(Nc2nc(-c3cccs3)nc3ccccc23)cc1 |  |
| 310 | c1ccc(CNc2nc(-c3ccncc3)nc3ccccc23)cc1 | IC50 [6]: 14000 nM; IC50 [2]: 17000 nM; IC50 [7]: 830 nM; IC50 [8]: 1800 nM; IC50 [3]: 7000 nM; IC50 [4]: > 100000 nM; IC50 [5]: 7500 nM; ED50 [9]: 11 mg/kg |
| 2150 | Clc1ccc(Nc2nc(-c3ccccc3)nc3ccccc23)cc1 |  |
| 22000 | CN1CCN(c2nc(NCc3ccccc3)c3ccccc3n2)CC1 |  |
| 5500 | Clc1ccccc1Nc1nc(-c2ccccc2)nc2ccccc12 |  |
| 800 | Clc1cccc(CNc2nc(-c3ccccc3)nc3ccccc23)c1 |  |
| 740 | Clc1ccc(CNc2nc(-c3ccccc3)nc3ccccc23)cc1 |  |
| 420 | O=[N+]([O-])c1cccc(Nc2nc(-c3ccccc3)nc3ccccc23)c1 |  |
| 260 | c1ccc(CNc2nc(-n3ccnc3)nc3ccccc23)cc1 | IC50 [6]: 51000 nM; IC50 [2]: 25000 nM; IC50 [7]: 220 nM; IC50 [8]: 1100 nM; IC50 [3]: 14000 nM; IC50 [4]: 50000 nM; IC50 [5]: 3100 nM; ED50 [9]: 5.7 mg/kg |
| 4300 | CCOC(=O)CCCNc1nc(-c2ccccc2)nc2ccccc12 |  |
| 8800 | c1ccc(-c2nc(NCC3CCCO3)c3ccccc3n2)cc1 (stereo not given) |  |
| 14000 | CN(Cc1ccccc1)c1nc(-c2ccccc2)nc2ccccc12 |  |
| 18500 | c1ccc(COc2nc(-c3ccccc3)nc3ccccc23)cc1 |  |

| IC50 [1] [nM] | Structure (SMILES) | further results |
| --- | --- | --- |
| 2400 | c1ccc(-c2nc(NC3CCCC3)c3ccccc3n2)cc1 |  |
| 450 | c1ccc(CNc2nc(-c3cccnc3)nc3ccccc23)cc1 | IC50 [6]: 50000 nM; IC50 [2]: 19000 nM; IC50 [7]: 5800 nM; IC50 [8]: > 10000 nM; IC50 [3]: 21000 nM; IC50 [4]: > 100000 nM; IC50 [5]: 9000 nM; ED50 [9]: > 30 mg/kg |
| 860 | COC(=O)c1ccc(Nc2nc(-c3ccccc3)nc3ccccc23)cc1 |  |
| 11000 | c1ccc(CNc2nc(C3CCCCC3)nc3ccccc23)cc1 |  |
| 15000 | OCCCCCNc1nc(-c2ccccc2)nc2ccccc12 |  |
| 4700 | c1ccc(-c2nc(NCc3ccco3)c3ccccc3n2)cc1 |  |
| 1300 | C(=C\c1nc(NCc2ccccc2)c2ccccc2n1)/c1ccccc1 |  |
| 800 | Clc1ccccc1CNc1nc(-c2ccccc2)nc2ccccc12 |  |
| 8600 | c1ccc(-c2nc(NCc3cccnc3)c3ccccc3n2)cc1 |  |
| 105 | Cc1ccc2nc(-c3cccnc3)nc(NCc3ccccc3)c2c1 |  |
|  | Cl.Cl.Clc1ccc2nc(-n3ccnc3)nc(NCc3ccccc3)c2c1 | IC50 [2]: > 3000 nM; IC50 [3]: > 3000 nM; IC50 [4]: > 3000 nM; IC50 [5]: > 3000 nM |
| 630 | c1coc(CNc2nc(-n3ccnc3)nc3ccccc23)c1 |  |
| 4400 | c1cncc(-c2nc(NCC3CC3)c3ccccc3n2)c1 |  |
| 760 | COc1cccc(Nc2nc(-c3ccccc3)nc3ccccc23)c1 |  |
| 360 | c1cncc(-c2nc(NCc3cccs3)c3ccccc3n2)c1 |  |
| 20000 | CN(c1ccccc1)c1nc(-c2ccccc2)nc2ccccc12 |  |
| 72 | COc1ccc2nc(-n3ccnc3)nc(NCc3ccco3)c2c1 |  |
| 10 | Cl.Cl.O=[N+]([O-])c1ccc2nc(-c3cccnc3)nc(NCc3ccccc3)c2c1 | IC50 [2]: > 3000 nM; IC50 [3]: > 3000 nM; IC50 [4]: > 3000 nM; IC50 [5]: > 3000 nM |
| 26 | Cl.Cl.Clc1ccc2nc(-c3cccnc3)nc(NCc3ccccc3)c2c1 | IC50 [2]: > 50000 nM; IC50 [3]: > 50000 nM; IC50 [4]: > 50000 nM; IC50 [5]: > 50000 nM |
| 540 | c1ccc(CCNc2nc(-c3cccnc3)nc3ccccc23)cc1 |  |

| IC50 [1] [nM] | Structure (SMILES) | further results |
| --- | --- | --- |
| 2.3 | Brc1ccc2nc(-n3ccnc3)nc(NCc3ccccc3)c2c1 |  |
| 11000 | c1ccc(-c2nc(NCc3ccccn3)c3ccccc3n2)cc1 |  |
| 2800 | c1cncc(CNc2nc(-c3cccnc3)nc3ccccc23)c1 |  |
| 165 | Fc1ccc2nc(-c3cccnc3)nc(NCc3ccccc3)c2c1 |  |
| 5000 | c1cncc(-c2nc(NCC3CCCO3)c3ccccc3n2)c1 (stereo not given) |  |
| 13000 | c1ccc(-c2nc(Nc3cccnc3)c3ccccc3n2)cc1 |  |
| 120 | Clc1ccc2nc(-c3cccnc3)nc(NCc3ccco3)c2c1 |  |
| 1000 | Clc1cccc(Nc2nc(-c3ccccc3)nc3ccccc23)c1 |  |
| 110 | CS(=O)(=O)c1ccc2nc(-n3ccnc3)nc(NCc3ccccc3)c2c1 |  |
| 230 | c1ccc2c(NCC3CCCCC3)nc(-n3ccnc3)nc2c1 |  |
| 860 | c1ccc(CCNc2nc(-n3ccnc3)nc3ccccc23)cc1 |  |
| 480 | Fc1ccc2c(NCc3ccccc3)nc(-c3cccnc3)nc2c1 |  |
| 14 | CSc1ccc2nc(-n3ccnc3)nc(NCc3ccccc3)c2c1 |  |
| 16 | COc1ccc2nc(-n3ccnc3)nc(NCc3ccccc3)c2c1.Cl.Cl | IC50 [2]: > 3000 nM; IC50 [7]: 2500 nM; IC50 [8]: 830 nM; IC50 [3]: 2800 nM; IC50 [4]: 2000 nM; IC50 [5]: 3300 nM; ED50 [9]: 2.6 mg/kg |
| 2.6 | O=[N+]([O-])c1ccc2nc(-n3ccnc3)nc(NCc3ccccc3)c2c1 |  |
| 320 | c1ccc(CNc2nc(-c3ccccc3)nc3ccccc23)cc1 | IC50 [2]: 24000 nM; IC50 [3]: 22500 nM; IC50 [4]: > 100000 nM; IC50 [5]: 8200 nM |
|  | O=C(O)/C=C/c1ccc(Cn2ccnc2)cc1 [OZAGREL] | IC50 [10]: 3300 nM |
|  | CCCOc1ccccc1-c1nc2[nH]nnc2c(=O)[nH]1 [ZAPRINAST] | IC50 [2]: 100000 nM; IC50 [3]: 68000 nM; IC50 [4]: 660000 nM |
